Source: patent US5317015A, “Azacyclic bisphosphonates as anticholesterolemic agents” (Rhone-Poulenc Rorer Pharmaceuticals Inc., priority 1992, dated 1994)

Test system: 1,4-condensation between isopentenyl diphosphate and geranyl diphosphate
Assay: not given
Conditions: J. Am. Chem. Soc., 1987, 109, 5544; cited from earlier work

Q: With `C=C(C)CCCP(=O)(O)CP(=O)(O)O` as the compound, how does the “inhibition of the 1,4-condensation (in words)” value read?
A: competitive inhibitors

Target: T1, squalene synthetase (Rattus norvegicus, UniProt Q02769)
T1 construct: The brown outer microsomal layer is carefully removed with a spatula and placed in a beaker on ice; from tissue; host or cells: liver microsomes of male Sprague-Dawley rats (105,000 g pellet, washed, not purified)
T1 sequence (Q02769 1-416): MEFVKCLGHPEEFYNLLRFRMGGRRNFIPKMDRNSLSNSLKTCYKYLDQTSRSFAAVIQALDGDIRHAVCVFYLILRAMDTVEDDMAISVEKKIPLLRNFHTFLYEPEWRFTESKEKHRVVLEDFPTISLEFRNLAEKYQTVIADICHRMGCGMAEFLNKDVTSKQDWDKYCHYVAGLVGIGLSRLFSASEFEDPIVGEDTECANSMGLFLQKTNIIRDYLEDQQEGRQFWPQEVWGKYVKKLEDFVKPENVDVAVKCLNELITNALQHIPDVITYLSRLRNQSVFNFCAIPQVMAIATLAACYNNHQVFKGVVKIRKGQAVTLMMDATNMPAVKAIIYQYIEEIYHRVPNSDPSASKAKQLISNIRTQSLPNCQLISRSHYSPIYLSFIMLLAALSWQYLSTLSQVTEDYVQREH
Assay: Squalene Synthetase Inhibition Assay (SQ SYN)
Assay type: biochemical, rat (Sprague-Dawley)
Conditions: rat liver microsomes, 10 μM 3H-FPP, 0.5 mM β-NADPH, pH 7.5, 10 min preincubation and 10 min incubation, 37° C.
Description: These tests involve such factors as the effect of the compounds of Formula I to inhibit squalene synthesis.
Squalene Synthetase Inhibition Assay
The squalene synthetase assay used is a modification of the procedures described by Popjak (1969) and Poulter et al. (1989):
Popjak, G. Enzymes of sterol biosynthesis in liver and intermediates of sterol biosynthesis. Meth. Enzymol. 15: 393-454, 1969.
Poulter, C. D., Capson, T. L., Thompson, M. D. and Bard R. S. Squalene synthetase. Inhibition by ammonium analogues of carbocationic intermediates in the conversion of presqualene diphosphate to squalene. J. Am. Chem. Soc. 111: 3734-3739, 1989.
I. Animal Source and Tissue Preparation
Four male Sprague-Dawley rats weighing 100-120 gms are fed a low cholesterol rodent diet (#5012) obtained from Purina Mills, Inc. in Richmond, Ind.; and housed under reverse-light. Water is given ad lib. Rats are lightly anesthetized with ether and then decapitated. Livers are removed and enzymes are separated by the method described below.
All Chemicals are "A.C.S." in purity or better unless noted;
AquaSol®-2 scintillation fluid (NEF-952) (Du Pont/NEN Research Products, Boston, Mass.);
Anhydrous MgCl2 (M-8266), β-NADPH tetrasodium salt, reduced form (N-1630), Bovine serum albumin (A-6003), Cholesterol (C-8503);
Squalene (S-3626), (Sigma Chemical Co., St. Louis, Mo.);
Bio-Rad protein assay dye concentrate (Bio-Rad Laboratories, Richmond, Calif.);
Denatured ethanol, DMSO, HCl (1N), KOH, methanol, NaOH (0.1N, 1N), petroleum ether (M-280 grade), potassium phosphate dibasic, 2-propanol (Fisher Scientific, Pittsburgh, Pa.);
Zero grade nitrogen gas mixture (certified analysis) (Woodland Oxygen & Supply Co., Philadelphia, Pa.).
[1-^3 H(N)]-FPP, triammonium salt (NET-1042), (Du Pont/NEN, Boston, Mass.);
Non-radiolabeled FPP is prepared in-house. The solid FPP is aliquoted and stored at -80° C. FPP is dissolved in 70% ethanol/30% 0.25M NH4 HCO3 at the concentration of 10 mM and the solution is aliquoted (200 μl each) and stored at -80° C.
III. Preparation of Assay Substances
Test solutions are prepared fresh in 100% DMSO or dH2 O. Subsequent dilutions are made in the same solvent. Compounds are tested initially at 1 or 10 μM (final concentrations).
Potassium phosphate (50 mM, 8.71 g/l) pH 7.5 stock buffer is prepared and stored at 4° C. until use. Anhydrous MgCl2 is added to the phosphate buffer on the day of assay for a final concentration of 10 mM (95 mg/100 ml). The buffer is flushed with N2 before use.
Non-radiolabeled FPP is diluted to 50 μM (100 μl 10 mM cold FPP+19.9 ml phosphate buffer). Then, 14 μl (20×10^6 dpm) of ^3 H-FPP (0.5 mCi/ml, 0.011 mg/ml) is added. 200 μl of this mixture is added per assay tube for a final reaction concentration of 10 μM FPP (~200,000 dpm/assay tube).
37.5 mg of β-NADPH is added to 9 ml assay buffer for a 5 mM concentration of β-NADPH. The mixture is vortexed and 100 μl of this solution is added to each tube for a final assay concentration of 0.5 mM β-NADPH.
75 gm of KOH is dissolved in 500 ml of denatured ethanol for a 15% solution and stored at 0° C. until use. 1 ml of this solution is added per tube to terminate the reaction.
IV. Experimental Procedure
Immediately following decapitation, livers are removed one at a time from four rats. The livers are combined and weighed in a tared beaker. Assay buffer is added equal to three times the liver weight. The liver is first homogenized with a blender for thirty seconds, and then by a motor driven teflon pestle at a speed of 2.5. During homogenization, the liver is kept on ice. When the liver is fully homogenized, the homogenate is centrifuged at 10,000 g for 30 min at 4° C. in 50 ml capacity centrifuge tubes. The mitochondrial pellet is discarded and the supernatant is filtered through a layer of gauze moistened with a little buffer. This supernatant is recentrifuged at 105,000 g for one hour at 0° C. in an ultracentrifuge in 25 ml capacity ultracentrifuge tubes. […]

Q: With `O=P(O)(O)C(O)(CCNC1CCc2ccccc21)P(=O)(O)O` (centres unmarked) as the compound, how does the IC50 read?
A: 60 nM

Q: Which IC50 does the source give for `O=P(O)(O)C(O)(CCNC1C2CC3CC(C2)CC1C3)P(=O)(O)O` (centres unmarked) here?
A: 440 nM

Q: For `O=P(O)(O)C(O)(CCNC1CC2CCC1C2)P(=O)(O)O` (centres unmarked), which IC50 is on record?
A: 600 nM

Q: With `O=P(O)(O)C(O)(CCNCC1CCCCCC1)P(=O)(O)O` as the compound, how does the IC50 read?
A: 1460 nM

Q: For `O=P(O)(O)C(O)(CCNC1CCCc2ccccc21)P(=O)(O)O` (centres unmarked), which IC50 is on record?
A: 130 nM

Q: Which IC50 does the source give for `O=P(O)(O)C(O)(CCNC1CCN(Cc2ccccc2)CC1)P(=O)(O)O` here?
A: 2300 nM

Q: For `O=P(O)(O)C(O)(CCN1CCC(c2ccccc2)CC1)P(=O)(O)O`, which IC50 is on record?
A: 370 nM

Q: Which IC50 does the source give for `O=P(O)(O)C(O)(CCN1CCCC2CCCCC21)P(=O)(O)O` (centres unmarked) here?
A: 19 nM

Q: Which IC50 does the source give for `O=P(O)(O)C(O)(CCN1CC2CCC(CC2)C1)P(=O)(O)O` here?
A: 16 nM

Q: With `O=P(O)(O)C(O)(CCN1CCCCC1)P(=O)(O)O` as the compound, how does the IC50 read?
A: 720 nM

Q: Which IC50 does the source give for `O=P(O)(O)C(O)(CCN1CCCCCC1)P(=O)(O)O` here?
A: 130 nM

Q: For `CC1(C)CC2CC(C)(CN2CCC(O)(P(=O)(O)O)P(=O)(O)O)C1` (centres unmarked), which IC50 is on record?
A: 5060 nM

Q: For `O=P(O)(O)C(O)(CCN1CCC2(CCCCC2)CC1)P(=O)(O)O`, which IC50 is on record?
A: 390 nM
